# According to patent US9855310B2, “Coix seed oil containing 8 triglycerides, and pharmaceutical preparation and use thereof” (ZHEJIANG KANGLAITE GROUP CO., LTD., priority 2014, dated 2018):
# Where a name gives a salt, the structure may show the parent alone. Marks after values point to notes of the source that are not given here.
# Experiments:
# QGY human hepatoma = experiment: Growth of QGY human hepatoma transplanted in nude mice; conditions: ip × 7qd
# Description: A549 Human lung cancer cells cryopreserved in liquid nitrogen were recovered, and incubated in a 37 incubator under 5% CO2. After being subcultured, cells in a logarithmic growth stage were distributed with normal saline to be a cell suspension in a concentration of 1-2×10^7 cells/ml. The cell suspension was inoculated into BALB/C nude mice (SPF grade, 18-20 g, 6 weeks old, male) subcutaneously at right axillary. The tumor tissues were aseptically taken from the 2nd generation of xenograft model of A549 human lung cancer in a vigorous growth stage and cut into small uniform pieces in the size of 1-2 mm^3. The right axillary of each nude mouse was inoculated one piece subcutaneously via a trocar. When the inoculated tumor could be touched, the mice were randomly grouped and administered according to the experimental design program. All contacted feed, padding, cages and equipment, etc., should be autoclaved prior to use. The nude mice were fed in a laminar flow rack. Tumor sizes and animal weights were observed and tested dynamically. Mice in each group were sacrificed 3 weeks later or so, and tumors were surgically removed and weighed.
# (§2) Q value of antitumor effect in drug combination was calculated according to Jin's formula: Q=Ea+b/(Ea+Eb−Ea×Eb) Wherein Ea+b=the tumor inhibition rate of drug combination, Ea or Eb=the tumor inhibition rate of drug A or drug B, respectively.
# QGY human hepatoma cells cryopreserved in liquid nitrogen were recovered, and incubated in a 37 incubator under 5% CO2.
# A549 human lung cancer = experiment: Growth of A549 human lung cancer transplanted in nude mice; type: in vivo, BALB/C nude mice; conditions: ip × 7qd
# Description: The injection of the invention (10 g/100 ml), Cisplatin (Qilu Pharmaceutical Co., Ltd), blank fat emulsion and normal saline
# S180 sarcoma = S180 sarcoma transplanted in mice; type: in vivo, Kunmin mice; conditions: ip × 2(1, 3)
# Description: The injection of the invention (10 g/100 ml), Cyclophosphamide (CTX), Mitoxantrone (DHAD), Mitomycin (MMC) and normal saline
# Each mouse was inoculated with 0.2 ml of the suspension subcutaneously at the right axilla, and the mice were grouped randomly. The administration began from the next day according to the dosage program in Table 7. […] Weights of tumor were compared and inhibition rates were calculated for each group.
# [1] = test system: Bcap-37 human breast cancer; experiment: Bcap-37 human breast cancer transplanted in nude mice; type: in vivo, BALB/C nude mice; conditions: 25 mg/kg, ip × 1
# Description: The injection of the invention (10 g/100 ml), Docetaxel injection (Taxotere, 20 mg/vial) and normal saline
# Bcap-37 human breast cancer: inoculated in BALB/C nude mice (SPF grade), 18-20 g, female
# Tumor blocks of well-grown Bcap-37 human breast cancer were homogenized in normal saline to obtain cell suspensions in the concentration of 1-2×10^7 cells/ml. Each nude mouse was inoculated with 0.2 ml of the suspension at the right axilla subcutaneously, and the mice were grouped randomly. The administration began from the 7th day after the inoculation. 20 Days after the inoculation, the mice were sacrificed. Tumor blocks were taken out and weighed. Differences of tumor weight between each experimental group and the control group were compared, and tumor inhibition rates and Q values were calculated.
# [2] = test system: PANC-1 human pancreatic cancer; experiment: PANC-1 human pancreatic cancer transplanted in nude mice; type: in vivo, BALB/C nude mice; conditions: 60 mg/kg, iv × 1
# Description: as §2
# Tumor blocks of well-grown PANC-1 human pancreatic cancer were inoculated subcutaneously in 4-week-old female BALB/C nude mice. The nude mice were grouped randomly and administered. One week after the end of the administration, the mice were sacrificed and dissected. Tumor blocks were taken out and weighed. Differences of tumor weight between each experimental group and the control group were compared and the tumor inhibition rates were calculated.
# [3] = test system: FC-3M human prostate cancer; experiment: FC-3M human prostate cancer transplanted in nude mice; type: in vivo, BALB/C nude mice; conditions: iv × 1
# Description: The injection of the invention (10 g/100 ml), Leuprolide acetate (Lupron) and normal saline
# Tumor blocks of well-grown FC-3M human prostate cancer were homogenized in normal saline (1:4). Each nude mouse was inoculated with 0.2 ml of the suspension at the right axilla subcutaneously, and the mice were grouped randomly. The administration began from the next day. 21 Days after the inoculation, the mice were sacrificed. Tumor blocks were taken out and weighed. Differences of tumor weight between each experimental group and the control group were compared and the tumor inhibition rates were calculated.
# [4] = test system: MDA-MB-435 human breast cancer; experiment: MDA-MB-435 human breast cancer transplanted in nude mice; type: in vivo, BALB/C nude mice; conditions: 50 mg/kg, ip × 1
# Description: Each nude mouse was inoculated with 0.2 ml of the suspension at the right axilla subcutaneously, and the mice were grouped randomly. The administration began from the 7th day after the inoculation. 18 Days after the inoculation, the mice were sacrificed. Tumor blocks were taken out and weighed. Differences of tumor weight between each experimental group and the control group were compared, and tumor inhibition rates and Q values were calculated.
# [5] = test system: A549 (human lung cancer cells); experiment: Inhibition on human tumor cell lines in MTT method in vitro; type: cell-based
# Excerpt: (§1) (1) Cell lines: PANC-1 (human pancreatic cancer cells), SKOV3 (human ovarian cancer cells), MCF-7 (human breast cancer cells), Bcap-37 (human breast cancer cells), SMMC-7721 (human hepatic cancer cells), HepG-2 (human hepatic cancer cells), A549 (human lung cancer cells) and H460 (human lung cancer cells), storaged and passaged maintainably in Research and Evaluation Center for Pharmacology, Shanghai Institute of Pharmaceutical Industry; The inhibition effects of samples on the above-mentioned cell lines were detected by using MTT method. The specific procedures were as follows: (1) Cell culture: (a) Storaged cells were taken out from the liquid nitrogen, thawed quickly in a 37 water bath, then aseptically transferred into 6 ml of cellular medium in a 10 ml centrifugal tube, and centrifuged at 1000 rpm for 5 min. The supernatant was discarded, then the precipitated cells were re-suspensed in 5-6 ml cellular media by pipetting and transferred into a flask in a 37 incubator for cell culture; (b) Next day, the flask was taken out from the incubator and the used medium was discarded, then the cells were incubated in 5-6 ml fresh medium in the 37 incubator; (c) On the third day, the flask was taken out from the incubator and the used medium was discarded, then 2-3 ml of PBS (pH7.4) was added into the flask with rocking for cleaning it and the used PBS was discarded. […] The flask was capped and placed in a 37 incubator for about 3 min, and the separation of cells from the flask wall was observed under the microscope. 2 ml of cellular medium was added and cells were separated completely from the flask wall by pipetting, then the cell suspension was transferred into 2 separate clean flasks, each containing 5-6 ml medium. The cell suspension was well-distributed by pipetting, then the flask was placed in a 37 incubator. (d) Step (c) was repeated every other day. In the whole cultivation process, adherent cells were not allowed to grow too dense and suspension cells were always maintained at a logarithmic growth stage. (2) Preparation of the sample and the control: A proper amount of sample of Coix seed oil (oil of Job's tears seed) was dissolved in DMSO to obtain a solution in a concentration of 10 mg/ml. […] The correspondingly diluted DMSO solutions, as controls, were added into the wells of the microplate. (4) Cells in a logarithmic growth stage were trypsinized and washed, then re-suspended in the medium containing 10% calf serum. The number of living cells was counted in Trypan blue dye exclusion method and cell suspensions were adjusted into a density of 2×10^5 cell/ml. (5) The cell-contained 96 well flat-bottom microplate was placed in a 37 incubator and cells were incubated under 5% CO2 for 48 h. (6) 20 μl of 5 mg/ml MTT solution was added into each well and cells were incubated continuously in the incubator for 3-4 h. (7) 100 μl of crystal dissolving solution was added into each well and cells were incubated continuously in the incubator overnight, so as to dissolve the resulted formazan crystals sufficiently. Then, the absorbance value was measured at 570 nm for each well. […] The calculation formula was as follows: (1−mean absorbance of experimental wells/mean absorbance of control wells)×100%
# [6] = test system: PANC-1 (human pancreatic cancer cells); experiment: as above; type: cell-based
# Excerpt: as §1
# [7] = test system: SKOV3 (human ovarian cancer cells); experiment: as above; type: cell-based; conditions: SK-OV-3
# Excerpt: as §1
# [8] = test system: SMMC-7721 (human hepatic cancer cells); experiment: as above; type: cell-based
# Excerpt: as §1
# [9] = test system: Bcap-37 (human breast cancer cells); experiment: as above; type: cell-based; conditions: Bcap37
# Excerpt: as §1
# [10] = test system: H460 (human lung cancer cells); experiment: as above; type: cell-based; conditions: NCI-H460
# Excerpt: as §1
# [11] = test system: MCF-7 (human breast cancer cells); experiment: as above; type: cell-based; conditions: MCF7
# Excerpt: as §1
# [12] = test system: HepG-2 (human hepatic cancer cells); experiment: as above; type: cell-based; conditions: HepG2
# Excerpt: as §1
# LM-3 human hepatoma = LM-3 human hepatoma transplanted in nude mice; conditions: ip × 7qd
# Description: When the inoculated tumor could be touched, the mice were randomly grouped and administered according to the experimental design program. All contacted feed, padding, cages and equipment, etc., should be autoclaved prior to use. The nude mice were fed in a laminar flow rack. Tumor sizes and animal weights were observed and tested dynamically. Mice in each group were sacrificed 3 weeks later or so, and tumors were surgically removed and weighed.
# LM-3 human hepatoma cells cryopreserved in liquid nitrogen were recovered, and incubated in a 37 incubator under 5% CO2. Other steps were the same as mentioned in 2-B.
# W256 cancer sarcoma = W256 cancer sarcoma transplanted in rats; type: in vivo, Wistar rats
# Description: The injection of the invention (10 g/100 ml), Cyclophosphamide (CTX) and normal saline
# W256 cancer sarcoma: inoculated in Wistar rats, 50-60 g, female
# Ascitic fluid of rats with well-grown W256 cancer sarcoma was diluted with normal saline to obtain a cell suspension of about 1-2×10^7 cells/ml. Each rat was inoculated with 0.2 ml of the suspension at the right axilla subcutaneously. The rats were grouped randomly next day and began administration. Two weeks later, animals were sacrificed and dissected to take out the tumor block. Weights of tumor were compared between each experimental group and the control group and tumor inhibition rates were calculated.
smiles,measurement,setting,value
COc1cccc2c1C(=O)c1c(O)c3c(c(O)c1C2=O)C[C@@](O)(C(=O)CO)C[C@@H]3O[C@H]1C[C@H](N)[C@H](O)[C@H](C)O1 [Adriamycin],Inhibition rate %,QGY human hepatoma; 1 mg/kg,35.48%
same,Weight of animal start/end: end,QGY human hepatoma; 1 mg/kg,24.5
same,Weight of animal start/end: start,QGY human hepatoma; 1 mg/kg,21.5
same,Weight of tumor (g) x ± SD,QGY human hepatoma; 1 mg/kg,0.742 ± 0.19 g
same,Inhibition rate %,QGY human hepatoma; 2 mg/kg,68.87%
same,Weight of animal start/end: end,QGY human hepatoma; 2 mg/kg,23.2
same,Weight of tumor (g) x ± SD,QGY human hepatoma; 2 mg/kg,0.358 ± 0.12 g
N.N.[Cl][Pt][Cl] [Cisplatin],Inhibition rate %,A549 human lung cancer; 1 mg/kg,41.07%
same,Weight of animal (g) start/end: end,A549 human lung cancer; 1 mg/kg,24.5 g
same,Weight of animal (g) start/end: start,A549 human lung cancer; 1 mg/kg,20.3 g
same,Weight of tumor (g) x ± SD,A549 human lung cancer; 1 mg/kg,0.772 ± 0.15 g
same,Inhibition rate %,A549 human lung cancer; 2 mg/kg,86.03%
same,Weight of animal (g) start/end: end,A549 human lung cancer; 2 mg/kg,23.6 g
same,Weight of animal (g) start/end: start,A549 human lung cancer; 2 mg/kg,20.3 g
same,Weight of tumor (g) x ± SD,A549 human lung cancer; 2 mg/kg,0.183 ± 0.05 g
"O=C1c2c(O)ccc(O)c2C(=O)c2c(NCCNCCO)ccc(NCCNCCO)c21 [DHAD, Mitoxantrone]",Inhibition rate %,S180 sarcoma; 2 mg/kg,51.0%
same,Weight of tumor (g) x ± SD,S180 sarcoma; 2 mg/kg,0.77 ± 0.19 g
CC(=O)O[C@@]12CO[C@@H]1C[C@H](O)[C@@]1(C)C(=O)[C@H](O)C3=C(C)[C@@H](OC(=O)[C@H](O)[C@@H](NC(=O)OC(C)(C)C)c4ccccc4)C[C@@](O)([C@@H](OC(=O)c4ccccc4)[C@H]21)C3(C)C [Docetaxel],Inhibition rate %,[1],56.80%
same,Weight of tumor (g) x ± SD,[1],1.27 ± 0.88 g
"Nc1ccn([C@@H]2O[C@H](CO)[C@@H](O)C2(F)F)c(=O)n1 [Gemcitabine, gemcitabine hydrochloride]",Inhibition rate %,[2],23.04%
same,Weight of tumor (g) x ± SD,[2],0.1426 ± 0.078 g
"CCNC(=O)[C@@H]1CCCN1C(=O)[C@H](CCCNC(=N)N)NC(=O)[C@H](CC(C)C)NC(=O)[C@@H](CC(C)C)NC(=O)[C@H](Cc1ccc(O)cc1)NC(=O)[C@H](CO)NC(=O)[C@H](Cc1c[nH]c2ccccc12)NC(=O)[C@H](Cc1c[nH]cn1)NC(=O)[C@@H]1CCC(=O)N1 [Lupron, Leuprolide acetate]",Inhibition rate %,[3]; 0.75 ml/kg,35.1%
same,Weight of tumor (g) x ± SD,[3]; 0.75 ml/kg,0.98 ± 0.26 g
same,Inhibition rate %,[3]; 1.5 ml/kg,47.68%
same,Weight of tumor (g) x ± SD,[3]; 1.5 ml/kg,0.79 ± 0.16 g
"CO[C@@]12[C@H](COC(N)=O)C3=C(C(=O)C(C)=C(N)C3=O)N1C[C@@H]1N[C@@H]12 [MMC, Mitomycin]",Inhibition rate %,S180 sarcoma; 1.5 mg/kg,39.5%
same,Weight of tumor (g) x ± SD,S180 sarcoma; 1.5 mg/kg,0.95 ± 0.16 g
"CC(=O)O[C@H]1C(=O)[C@@]2(C)[C@H]([C@H](OC(=O)c3ccccc3)[C@]3(O)C[C@H](OC(=O)[C@H](O)[C@@H](NC(=O)c4ccccc4)c4ccccc4)C(C)=C1C3(C)C)[C@]1(OC(C)=O)CO[C@@H]1C[C@@H]2O [Taxol, Paclitaxel]",Inhibition rate %,[4],62.87%
same,IC50,[5],0.46 µg/mL
same,IC50,[6],0.44 µg/mL
same,IC50,[7],0.22 µg/mL
same,IC50,[8],0.41 µg/mL
same,IC50,[9],0.28 µg/mL
same,IC50,[10],0.49 µg/mL
same,IC50,[11],0.18 µg/mL
same,IC50,[12],0.45 µg/mL
"O=P1(N(CCCl)CCCl)NCCCO1 (centres unmarked) [cyclophosphamide, Cyclophosphamide]",Inhibition rate %,LM-3 human hepatoma; 15 mg/kg,27.21%
same,Weight of animal start/end: end,LM-3 human hepatoma; 15 mg/kg,25.1
same,Weight of animal start/end: start,LM-3 human hepatoma; 15 mg/kg,20.6
same,Weight of tumor (g) x ± SD,LM-3 human hepatoma; 15 mg/kg,1.110 ± 0.11 g
same,Inhibition rate %,LM-3 human hepatoma; 30 mg/kg,84.13%
same,Weight of animal start/end: end,LM-3 human hepatoma; 30 mg/kg,25.6
same,Weight of animal start/end: start,LM-3 human hepatoma; 30 mg/kg,20.4
same,Weight of tumor (g) x ± SD,LM-3 human hepatoma; 30 mg/kg,0.242 ± 0.11 g
same,Weight of tumor (g) x ± SD,"W256 cancer sarcoma; 10 mg/kg, iv × 2(3, 5)",2.07 ± 1.11 g
same,Inhibition rate %,"W256 cancer sarcoma; 10 mg/kg, iv × 2(3, 5), listed as CTX",38.6%
same,Inhibition rate %,"W256 cancer sarcoma; 30 mg/kg, iv × 7",88.1** %
same,Weight of tumor (g) x ± SD,"W256 cancer sarcoma; 30 mg/kg, iv × 7",0.40 ± 0.15 g
same,Weight of tumor (g) x ± SD,S180 sarcoma; 30 mg/kg,0.95 ± 0.22 g
same,Inhibition rate %,"S180 sarcoma; 30 mg/kg, listed as CTX",39.5%
